Assay results published in patent US9096543B2, “Nuclear transport modulators and uses thereof” (Karyopharm Therapeutics Inc., priority 2012, dated 2015).

Experiments:
[1] = system: inflammation-related CRM1 cargo proteins: IκB, Nrf2, HMGB1, FoxP3, FOXO1a, RxRα, PPARγ and NFκB (p65 subunit); assay: Immunofluorescence of nuclear localization of inflammation-related CRM1 cargos in HeLa and THP-1 cells; format: cell-based, human; settings: 1-10 μM Compound 1 with 20 ng/mL TNFα, 4-24 h
Experimental: HeLa and THP-1 (human acute monocytic leukemia) cells were treated with inflammation inducing factor, TNFα, alone or in combination with 1-10 μM of Compound 1 for 4-24 h, and then were analyzed by immunofluorescence (IF) for the nuclear localization of inflammation-related CRM1 cargo proteins: IκB, Nrf2, HMGB1, FoxP3, FOXO1a, RxRα, PPARγ and NFκB (p65 subunit).
For the detection of IkB, Nrf2, RxRα and PPARγ localization, cells were pre-incubated with 10 μM Compound 1 for 30 minutes, followed by incubation with 20 ng/mL TNFα for 4 hrs in serum free media. For detection of HMGB1, FoxP3 and Foxo1A, cells were pre-incubated with 1 μM of Compound 1 for 2 h, followed by incubation with 20 ng/mL TNFα for 24 hours. […] IκB was detected by the primary rabbit monoclonal (E130) antibody from Abcam (ab32518); Nrf2 was detected by the primary rabbit polyclonal antibody from Santa Cruz (sc722); RxR alpha was detected by the primary rabbit polyclonal antibody from Santa Cruz (sc553); PPAR gamma was detected by the primary rabbit monoclonal […] antibody from Cell Signaling (#2443); Foxo1A was detected by the primary rabbit monoclonal [C29H4] antibody from Cell Signaling (#2880); HMGB1 was detected by the primary rabbit polyclonal antibody from Abcam (ab18256); FoxP3 was detected by the primary rabbit polyclonal antibody from Abeam (ab10563). […]

[2] = system: Nrf2 pathway; assay: Nrf2 pathway induction in THP-1 cells with or without KEAP1 knockdown (quantitative PCR); format: cell-based, human
Excerpt: THP-1 (human acute monocytic leukemia cells) cells were used to evaluate the effects of Compound 1 on the Nrf2 pathway in an inflammation environment. Nuclear factor (erythroid-derived 2)-like 2 (Nrf2) is an anti-inflammatory transcription factor. Under normal conditions, Nrf2 is kept in the cytoplasm by Kelch like-ECH associated protein 1 (KEAP1), which degrades Nrf2 by ubiquitination. Nrf2 can also move into the nucleus and back into the cytoplasm as a CRM1 cargo. In the current study, Nrf2 was protected from degradation by knocking down KEAP1 with siRNA. Then, KEAP1-depleted cells were treated with TNFα to induce inflammation, and the ability of Compound 1 to reverse inflammation by up-regulation of the Nrf2 pathway was tested.
THP-1 (acute monocytic leukemia) cells were plated in two 10 cm culture dishes (6*10^6 cells/dish) with RPMI-1640 medium (Lonza) supplemented with 10% heat-inactivated fetal bovine serum (Invitrogen) and 2-mercaptoethanol to a final concentration of 0.05 mM. Cells in one dish were transfected with 50 nM of KEAP1 siRNA (Life Technologies, Silencer Select, siRNA ID# s18982) using Lipofectamine RNAiMax (Invitrogen), whereas the cells in the other dish were transfected with 50 nM of control siRNA, Block-iT (Invitrogen). Transfected cells were left for 72 h and the KEAP1 knockdown efficiency was calculated with quantitative PCR using a probe against KEAP1.
Next, the cells from each of the dishes were divided equally into 4 wells in different 6-well plates. One of the wells from each of the plates was pre-treated with 1 μM of Compound 1 for 1 h, followed by 20 ng/mL TNFα for 24 h. The other wells were treated with either 1 μM Compound 1 or 20 ng/mL TNFα or neither for 24 h. Following the treatment, RNA was extracted from the cells using an RNA extraction kit (Qiagen). RNA samples from each treatment group were reverse transcribed and real-time PCR was performed on the corresponding cDNA sequences using probes against Nrf2 and two of its downstream genes, NQO1 and EPHX1. THP-1 cells were transfected with KEAP1 siRNA. 40% knockdown efficiency was achieved. […]

[3] = system: anti-collagen antibody induced arthritis; assay: Anti-collagen antibody induced mouse model of rheumatoid arthritis (CAIA); format: in vivo, Balb/c mice
Experimental: Twenty-four (24) male Balb/c mice, aged 6 to 8 weeks were used. […] On study Day 0 (study commencement), all mice were subjected to a 2 mg intravenous injection of ArthritoMAb™ antibody cocktail (MD Biosciences #S1203001) followed by an intraperitoneal injection of LPS (100 μg/mouse) on study Day 3. […] Treatments were administered once daily on days 4, 6, 8 and 10 for all groups, except where dosing vacations applied. If an animal's weight dropped below 87% of its day 0 starting weight, the animal was not dosed until it gained weight equivalent to 90% or more of day 0 weight.
Arthritis development, clinical signs and body weights were monitored in all mice on study days 0, 3-8, 10 and 12. Observations included changes in skin, fur, eyes, mucous membranes, occurrence of secretions and excretions (e.g., diarrhea) and autonomic activity (e.g., lacrimation, salivation, piloerection, pupil size, unusual respiratory pattern). All paws (front left and right, and rear left and right) of each animal were examined for signs of arthritogenic responses prior to arthritis induction and test item or control item administration on study Day 0 and subsequently on study Days 3-8, 10 and 12 (study termination). A rthritis reactions were scored and recorded according to a 0-4 scale in ascending order of severity, as shown Table 5 below. Paw thickness was also measured using a dial caliper (Kroeplin, Munich, Germany).
The dose administered was calculated based on the assumption that the animals weighed, on average, 20 g. […] Vehicle for the vehicle control group was prepared by dissolving 0.6 g Pluronic and 0.6 g PVP in 100 mL distilled deionised water. The MAb stock solution (10 mg/mL) was supplied by MD Biosciences, Division of Morwell Diagnostics GmbH. LPS was diluted with PBS to achieve the appropriate concentration. Thorough vortexing was required just prior to its injection. […] A fixed volume of 200 μL was administered to each mouse.
Evaluation was primarily based on the mean values for arthritis scoring and paw thickness measurements. […]

| SMILES | nuclear localization of inflammation-related CRM1 cargo proteins [1] | EPHX1 expression ([2]; 1 μM Compound 1, presence or absence of TNFα) | Nrf2 expression ([2]; 1 μM Compound 1 alone, with or without KEAP1 knockdown) | Nrf2 signaling ([2]; 1 μM Compound 1 for 24 hrs with 20 ng/mL TNFα) | anti-arthritic activity ([3]; 7.5 mg/kg or 4 mg/kg orally) | days on which rear paw arthritis score was significantly reduced compared to vehicle ([3]; 7.5 mg/kg or 4 mg/kg orally) | days on which total arthritis score was significantly reduced compared to vehicle ([3]; 7.5 mg/kg orally, days 4, 6, 8, 10) |
| --- | --- | --- | --- | --- | --- | --- | --- |
| CC(C)(C)C(=O)NNC(=O)/C=C\n1cnc(-c2cc(C(F)(F)F)cc(C(F)(F)F)c2)n1 [Compound 1, (Z)-3-(3-(3,5-bis(trifluoromethyl)phenyl)-1H-1,2,4-triazol-1-yl)-N′-pivaloylacrylohydrazide] | demonstrate nuclear localization of the above cargos | up-regulated the expression of EPHX1 in the presence or absence of TNFα | did not have any significant effect on Nrf2 expression | up-regulated Nrf2 signaling | – | – | – |
| O=C(/C=C\n1cnc(-c2cc(C(F)(F)F)cc(C(F)(F)F)c2)n1)NNC(=O)CN1CCOCC1 [Compound 2, (Z)-3-(3-(3,5-bis(trifluoromethyl)phenyl)-1H-1,2,4-triazol-1-yl)-N′-(2-morpholinoacetyl)acrylohydrazide] | – | – | – | – | exhibited significant anti-arthritic activity | 5-12 | 5-12 |
